15 compounds from US12139492B2 (Endotarget Inc., priority 2021, dated 2024) can be followed below.

In one assay the target is BTK (Homo sapiens, UniProt Q06187). The experiment in a line: Degradation of BTK protein in Namalwa cells (Western blot; DC50, Dmax). The settings on record: for DC50: cell line not given. (Immunoblotting shows a protein as a band on a membrane.)
In the next assay the test system is Mino cells. Briefly: Antiproliferative effect, MTS cell viability assay, Mino cells. The assay is classed as cell-based. The note with it: Homo sapiens, Mino mantle cell lymphoma cells, read-out: IC50 (anti-proliferation) Mino cells. The gist of the method: (§1)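 Mino and JeKo-1 mantle B-cell lymphoma lines were exposed to compound at 0, 0.001, 0.01, 0.1, 1 and 10 μM for 72 h. Viability was read by MTS reduction to formazan, measured as absorbance at 490 nm.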
For orientation: Formazan colour is commonly taken as a measure of viable cells.

In a further assay the test system is JeKo-1 cells. The experiment in a line: Antiproliferative effect, MTS cell viability assay, JeKo-1 cells. In kind it is cell-based. The note with it: Homo sapiens; JeKo-1 mantle cell lymphoma cells; read-out: IC50 (anti-proliferation) JeKO-1 cells. The gist of the method:
as §1

Setting [1] is: read-out: DC50 (BTK degradation), concentration giving 50% reduction of BTK expression level.
[2] abbreviates: read-out: Dmax (BTK degradation).

The term DC50 denotes the concentration giving 50% degradation. The Dmax is the greatest extent of degradation seen.

Like-named read-outs stand apart in the source and are kept apart here.

Sequence of BTK (Q06187 whole entry): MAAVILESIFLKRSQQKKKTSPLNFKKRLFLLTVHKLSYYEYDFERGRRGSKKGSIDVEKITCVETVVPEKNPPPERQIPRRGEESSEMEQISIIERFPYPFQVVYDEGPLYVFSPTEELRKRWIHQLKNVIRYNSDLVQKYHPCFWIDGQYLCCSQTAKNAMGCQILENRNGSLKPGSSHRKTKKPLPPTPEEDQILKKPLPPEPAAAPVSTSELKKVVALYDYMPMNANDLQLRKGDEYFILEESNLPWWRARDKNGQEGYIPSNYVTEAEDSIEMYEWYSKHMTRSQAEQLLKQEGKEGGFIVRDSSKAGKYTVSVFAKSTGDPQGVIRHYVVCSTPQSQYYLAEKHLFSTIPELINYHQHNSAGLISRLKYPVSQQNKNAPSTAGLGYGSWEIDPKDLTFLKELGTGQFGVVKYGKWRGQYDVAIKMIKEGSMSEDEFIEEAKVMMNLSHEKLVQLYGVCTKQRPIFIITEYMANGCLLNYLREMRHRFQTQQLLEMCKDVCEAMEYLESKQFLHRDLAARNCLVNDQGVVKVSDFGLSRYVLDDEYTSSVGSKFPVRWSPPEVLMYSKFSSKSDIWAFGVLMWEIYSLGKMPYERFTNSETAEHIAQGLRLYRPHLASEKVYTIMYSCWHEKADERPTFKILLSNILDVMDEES

Take `Nc1ncnc2c1c(-c1ccc(Oc3ccccc3)cc1)nn2C1CCN(CCN2CCC(CN3CCN(c4ccc(NC5CCC(=O)NC5=O)cc4)CC3)CC2)CC1` (stereo not shown) [Compound 558, 3-((4-(4-((1-(2-(4-(4-amino-3-(4-phenoxyphenyl)-1H-pyrazolo[3,4-d]pyrimidin-1-yl)piperidin-1-yl)ethyl)piperidin-4-yl)methyl)piperazin-1-yl)phenyl)amino)piperidine-2,6-dione]: the DC50 at BTK (setting [1]) is less than 10 nM. The Dmax at BTK (setting [2]) is more than 90%. Further, the IC50 in the assay on Mino cells (MINO) and in the assay on JeKo-1 cells was less than 1000 nM in each case.
As for `Nc1ncnc2c1c(-c1ccc(Oc3ccccc3)cc1)nn2C1CCN(CC2CN(C[C@H]3CCN(c4ccc5c(c4)C(=O)N(C4CCC(=O)NC4=O)C5=O)C3)C2)CC1` (stereo partly drawn) [Compound 443a, 5-((R)-3-((3-((4-(4-amino-3-(4-phenoxyphenyl)-1H-pyrazolo[3,4-d]pyrimidin-1-yl)piperidin-1-yl)methyl)azetidin-1-yl)methyl)pyrrolidin-1-yl)-2-(2,6-dioxopiperidin-3-yl)isoindoline-1,3-dione], at BTK (setting [1]), the DC50 was less than 10 nM. Besides, at BTK (setting [2]), the greatest degradation seen (Dmax) was more than 90%. The IC50 with Mino cells (MINO) and in the assay with JeKo-1 cells was less than 1000 nM each time.
Compound `NC(=O)c1c(-c2ccc(Oc3ccccc3)cc2)nn2c1NCC[C@H]2C1CCN(C(=O)N2CCN(CCN3CCN(c4ccc5c(c4)C(=O)N(C4CCC(=O)NC4=O)C5=O)CC3)CC2)CC1` (stereo partly drawn) [Compound 297, (7S)-7-(1-(4-(2-(4-(2-(2,6-dioxopiperidin-3-yl)-1,3-dioxoisoindolin-5-yl)piperazin-1-yl)ethyl)piperazine-1-carbonyl)piperidin-4-yl)-2-(4-phenoxyphenyl)-4,5,6,7-tetrahydropyrazolo[1,5-a]pyrimidine-3-carboxamide] displayed a Dmax on BTK of more than 90%. The compound further came in with a DC50 on BTK (BTK degradation) of 10 to 50 nM. The IC50 with Mino cells (MINO) and in the assay on JeKo-1 cells was 1000 to 10000 nM throughout.
Regarding `Nc1ncnc2c1c(-c1ccc(Oc3ccccc3)cc1)nn2C1CCN(CC2CN(CC3CCN(c4ccc5c(c4)C(=O)N(C4CCC(=O)NC4=O)C5=O)C3)C2)CC1` (stereo not shown) [Compound 443, 5-(3-((3-((4-(4-amino-3-(4-phenoxyphenyl)-1H-pyrazolo(3,4-d)pyrimidin-1-yl)piperidin-1-yl)methyl)azetidin-1-yl)methyl)pyrrolidin-1-yl)-2-(2,6-dioxopiperidin-3-yl)isoindoline-1,3-dione], the “degradation of BTK protein” value on BTK (Namalwa B lymphocyte cells, various concentrations, 24 hours, Western blot) was “dose-dependent degradation”. Moreover, the DC50 on BTK (setting [1]) is less than 10 nM. Besides, the Dmax on BTK (setting [2]) is more than 90%. Besides, the IC50 in the assay with Mino cells (MINO) and in the assay on JeKo-1 cells was less than 1000 nM throughout.
Consider `Nc1ncnc2c1c(-c1ccc(Oc3ccccc3)cc1)nn2C1CCN(CC2CCN(CCCC(=O)N3CCC(c4ccc5c(c4)CN(C4CCC(=O)NC4=O)C5=O)CC3)CC2)CC1` (stereo not shown) [Compound 422, 3-(5-(1-(4-(4-((4-(4-amino-3-(4-phenoxyphenyl)-1H-pyrazolo(3,4-d)pyrimidin-1-yl)piperidin-1-yl)methyl)piperidin-1-yl)butanoyl)piperidin-4-yl)-1-oxoisoindolin-2-yl)piperidine-2,6-dione], for which the 50% degradation concentration (DC50) on BTK (setting [1]) is less than 10 nM. For the same compound, the Dmax on BTK (setting [2]) is more than 90%. Also, the IC50 in the assay with Mino cells (MINO) and in the assay on JeKo-1 cells was less than 1000 nM throughout.
Take `Nc1ncnc2c1c(-c1ccc(Oc3ccccc3)cc1)nn2C1CCN(C(=O)C2CC(N3CCN(c4ccc5c(c4)CN(C4CCC(=O)NC4=O)C5=O)CC3)C2)CC1` (stereo not shown) [Compound 508, 3-(5-(4-(3-(4-(4-amino-3-(4-phenoxyphenyl)-1H-pyrazolo[3,4-d]pyrimidin-1-yl)piperidine-1-carbonyl)cyclobutyl)piperazin-1-yl)-1-oxoisoindolin-2-yl)piperidine-2,6-dione]: the 50% degradation concentration (DC50) on BTK (setting [1]) is less than 10 nM. Further, on BTK (setting [2]), the Dmax is more than 90%. In addition, the IC50 in the assay on Mino cells (MINO) and in the assay on JeKo-1 cells was less than 1000 nM in each case.
At BTK, `Nc1ncnc2c1c(-c1ccc(Oc3ccccc3)cc1)nn2C1CCN(C2CCN(C(=O)N3CCC(CCN4CCN(c5ccc6c(c5)C(=O)N(C5CCC(=O)NC5=O)C6=O)CC4)CC3)CC2)CC1` (stereo not shown) [Compound 251, 5-(4-(2-(1-(4-(4-amino-3-(4-phenoxyphenyl)-1H-pyrazolo[3,4-d]pyrimidin-1-yl)-[1,4′-bipiperidine]-1′-carbonyl)piperidin-4-yl)ethyl)piperazin-1-yl)-2-(2,6-dioxopiperidin-3-yl)isoindoline-1,3-dione] came in with a Dmax of more than 90%. Also, on BTK (BTK degradation), the DC50 fell in the range of 10 to 50 nM. Further, the IC50 was less than 1000 nM with Mino cells (MINO) and 1000 to 10000 nM in the assay on JeKo-1 cells.
At BTK, `NC(=O)c1c(-c2ccc(Oc3ccccc3)cc2)nn2c1NCCC2C1CCN(C2CCN(CCC3CCN(c4ccc5c(c4)CN(C4CCC(=O)NC4=O)C5=O)CC3)CC2)CC1` (stereo not shown) [Compound 310, 7-(1′-(2-(1-(2-(2,6-dioxopiperidin-3-yl)-1-oxoisoindolin-5-yl)piperidin-4-yl)ethyl)-[1,4′-bipiperidin]-4-yl)-2-(4-phenoxyphenyl)-4,5,6,7-tetrahydropyrazolo[1,5-a]pyrimidine-3-carboxamide] came in with a Dmax of more than 75%. This compound gave a DC50 on BTK (BTK degradation) of 10 to 50 nM. The IC50 with Mino cells (MINO) and with JeKo-1 cells was more than 10000 nM throughout.
In turn, `NC(=O)c1c(-c2ccc(Oc3ccccc3)cc2)nn2c1NCCC2C1CCN(CCOCCOCCN2CCN(c3ccc4c(c3)C(=O)N(C3CCC(=O)NC3=O)C4=O)CC2)CC1` (stereo not shown) [Compound 269, 7-(1-(2-(2-(2-(4-(2-(2,6-dioxopiperidin-3-yl)-1,3-dioxoisoindolin-5-yl)piperazin-1-yl)ethoxy)ethoxy)ethyl)piperidin-4-yl)-2-(4-phenoxyphenyl)-4,5,6,7-tetrahydropyrazolo[1,5-a]pyrimidine-3-carboxamide] gave a Dmax at BTK of more than 90%. Also, the DC50 at BTK (BTK degradation) lay in the range of 10 to 50 nM. Besides, the IC50 with Mino cells (MINO) and in the assay with JeKo-1 cells was more than 10000 nM in each case.
Take `Nc1ncnc2c1c(-c1ccc(Oc3ccccc3)cc1)nn2C1CCN(CCN2CCC(CN3CCN(c4ccc5c(c4)C(=O)N(C4CCC(=O)NC4=O)C5=O)CC3)CC2)CC1` (stereo not shown) [Compound 453, 5-(4-((1-(2-(4-(4-amino-3-(4-phenoxyphenyl)-1H-pyrazolo(3,4-d)pyrimidin-1-yl)piperidin-1-yl)ethyl)piperidin-4-yl)methyl)piperazin-1-yl)-2-(2,6-dioxopiperidin-3-yl)isoindoline-1,3-dione]: on BTK (setting [1]), the DC50 was in the range of 10 to 50 nM. Further, the greatest degradation seen (Dmax) at BTK (setting [2]) was more than 90%. Further, the IC50 in the assay on Mino cells and in the assay with JeKo-1 cells was 1000 to 10000 nM each time.
As to `Nc1ncnc2c1c(-c1ccc(Oc3ccccc3)cc1)nn2[C@@H]1CCCN(C(=O)N2CC(N3CCN(c4ccc5c(c4)C(=O)N(C4CCC(=O)NC4=O)C5=O)CC3)C2)C1` (stereo partly drawn) [Compound 487, 5-(4-(1-((R)-3-(4-amino-3-(4-phenoxyphenyl)-1H-pyrazolo[3,4-d]pyrimidin-1-yl)piperidine-1-carbonyl)azetidin-3-yl)piperazin-1-yl)-2-(2,6-dioxopiperidin-3-yl)isoindoline-1,3-dione], at BTK (setting [1]), the DC50 was less than 10 nM. Moreover, the greatest degradation seen (Dmax) at BTK (setting [2]) is more than 90%. For the same compound, the IC50 in the assay with Mino cells (MINO) and with JeKo-1 cells was less than 1000 nM each time.
With `NC(=O)c1c(-c2ccc(Oc3ccccc3)cc2)nn2c1NCC[C@H]2C1CCN(CC2CCN(C(=O)N3CCC(N4CCN(c5ccc6c(c5)CN(C5CCC(=O)NC5=O)C6=O)CC4)CC3)CC2)CC1` (stereo partly drawn) [Compound 404, (7S)-7-(1-((1-(4-(4-(2-(2,6-dioxopiperidin-3-yl)-1-oxoisoindolin-5-yl)piperazin-1-yl)piperidine-1-carbonyl)piperidin-4-yl)methyl)piperidin-4-yl)-2-(4-phenoxyphenyl)-4,5,6,7-tetrahydropyrazolo[1,5-a]pyrimidine-3-carboxamide], at BTK (setting [1]), the DC50 was less than 10 nM. Besides, the Dmax on BTK (setting [2]) was more than 90%. The IC50 in the assay on Mino cells (MINO) and in the assay on JeKo-1 cells was less than 1000 nM each time.
As to `NC(=O)c1c(-c2ccc(Oc3ccccc3)cc2)nn2c1NCCC2C1CCN(C(=O)N2CCC(CN3CCN(c4ccc5c(c4)C(=O)N(C4CCC(=O)NC4=O)C5=O)CC3)CC2)CC1` (stereo not shown) [Compound 275, 7-(1-(4-((4-(2-(2,6-dioxopiperidin-3-yl)-1,3-dioxoisoindolin-5-yl)piperazin-1-yl)methyl)piperidine-1-carbonyl)piperidin-4-yl)-2-(4-phenoxyphenyl)-4,5,6,7-tetrahydropyrazolo[1,5-a]pyrimidine-3-carboxamide], the Dmax on BTK is more than 90%. At BTK (BTK degradation), this compound displayed a DC50 of less than 10 nM. Besides, the IC50 in the assay on Mino cells (MINO) and in the assay on JeKo-1 cells was 1000 to 10000 nM in each case.
Compound `NC(=O)c1c(-c2ccc(Oc3ccccc3)cc2)nn2c1NCCC2C1CCN(CC2CCN(C(=O)N3CCN(Cc4ccc5c(c4)C(=O)N(C4CCC(=O)NC4=O)C5=O)CC3)CC2)CC1` (stereo not shown) [Compound 359, 7-(1-((1-(4-((2-(2,6-dioxopiperidin-3-yl)-1,3-dioxoisoindolin-5-yl)methyl)piperazine-1-carbonyl)piperidin-4-yl)methyl)piperidin-4-yl)-2-(4-phenoxyphenyl)-4,5,6,7-tetrahydropyrazolo[1,5-a]pyrimidine-3-carboxamide] came in with a Dmax on BTK of more than 50%. The DC50 on BTK (BTK degradation) is more than 50 nM. Further, the IC50 in the assay on Mino cells (MINO) and in the assay on JeKo-1 cells was more than 10000 nM in each case.
In the case of `Nc1ncnc2c1c(-c1ccc(Oc3ccccc3)cc1)nn2C1CCN(C[C@@H]2CCN(C[C@@H]3CCN(c4ccc5c(c4)C(=O)N(C4CCC(=O)NC4=O)C5=O)C3)C2)CC1` (stereo partly drawn) [Compound 447c, 5-((S)-3-(((S)-3-((4-(4-amino-3-(4-phenoxyphenyl)-1H-pyrazolo[3,4-d]pyrimidin-1-yl)piperidin-1-yl)methyl)pyrrolidin-1-yl)methyl)pyrrolidin-1-yl)-2-(2,6-dioxopiperidin-3-yl)isoindoline-1,3-dione], the DC50 on BTK (setting [1]) is less than 10 nM. Further, the Dmax on BTK (setting [2]) is more than 90%. Besides, the IC50 in the assay on Mino cells (MINO) and with JeKo-1 cells was 1000 to 10000 nM each time.
